Reference: US10253002B2, “Compounds and methods of treating infections” (Neoculi Pty Ltd., priority 2013, dated 2019)
“And” between values parts separate entries of the source, which are not always exact repeats. Identical values can stand only once.

system: VRE; assay: Broth microdilution MIC, Example 7 (NCL812 and analogues); assay type: cell-based, Enterococcus spp.; settings: MIC testing, two VRE strains
Description: (§1) Minimum inhibitory concentrations (μg/ml) were determined using the broth microdilution method recommended by the Clinical and Laboratory Standards Institute (CLSI). MIC breakpoints were determined by visual assessment and then confirmed using an ELISA plate reader, measuring absorbance levels at 600 nm. Bacterial growth (turbidity) in the wells with antimicrobial was compared with the amount of growth (turbidity) in the growth-control well (containing no antimicrobial). All isolates were tested in duplicate, if there was a difference of greater than one two-fold dilution in the results, the test was repeated a third time. The purity of the isolates was closely monitored during testing by subculturing the prepared bacterial inoculum onto SBA (sheep blood agar). […] The MIC50, MIC20 and MIC range (minimum and maximum) were calculated for each of the bacterial groups.
(§2) MICs were determined against two MRSA strains, two VRE strains and one strain each of E. coli and Pseudomonas aeruginosa.

| Compound | activity against VRE among analogues |
| --- | --- |
| CC(=NNC(=N)NN=C(C)c1ccc(C(F)(F)F)cc1)c1ccc(C(F)(F)F)cc1.Cl [NCL061] | greatest activity |

same assay, conditions: isolate VRE 1; 24 hours; 1st and 2nd replicate rows

| Compound | MIC (μg/ml) at 24 hours, VRE 1 |
| --- | --- |
| Cl.N#Cc1ccc(/C=N/NC(=N)N)cc1 [NCL031] | >128 µg/mL |
| Cl.N#Cc1ccccc1/C=N/NC(=N)N [NCL032] | >128 µg/mL |
| Cl.N#Cc1cccc(/C=N/NC(=N)N)c1 [NCL033] | >128 µg/mL |
| COc1ccccc1/C=N/NC(=N)N.Cl [NCL034] | >128 µg/mL |
| Cl.N=C(N/N=C/c1ccccc1C(F)(F)F)N/N=C/c1ccccc1C(F)(F)F [NCL036] | >128 µg/mL |
| Cl.N=C(NN=Cc1cccc(C(F)(F)F)c1)NN=Cc1cccc(C(F)(F)F)c1 [NCL037] | >126 µg/mL and >128 µg/mL |
| Cl.N=C(N)N/N=C/c1ccccc1C(F)(F)F [NCL042] | >128 µg/mL |
| Cc1ccccc1/C=N/NC(=N)N.Cl [NCL045] | >128 µg/mL |
| Cc1cccc(/C=N/NC(=N)N)c1.Cl [NCL046] | >128 µg/mL |
| NC(=O)N/N=C/c1ccccc1Cl [NCL047] | >128 µg/mL |
| CC(=NNC(=N)NN=C(C)c1ccc(C(F)(F)F)cc1)c1ccc(C(F)(F)F)cc1.Cl [NCL061] | >128 µg/mL |

same assay, conditions: isolate VRE 2; 24 hours; 1st and 2nd replicate rows

| Compound | MIC (μg/ml) at 24 hours, VRE 2 |
| --- | --- |
| Cl.N#Cc1ccc(/C=N/NC(=N)N)cc1 [NCL031] | >128 µg/mL |
| Cl.N#Cc1ccccc1/C=N/NC(=N)N [NCL032] | >128 µg/mL |
| Cl.N#Cc1cccc(/C=N/NC(=N)N)c1 [NCL033] | >128 µg/mL |
| COc1ccccc1/C=N/NC(=N)N.Cl [NCL034] | >128 µg/mL |
| Cl.N=C(N/N=C/c1ccccc1C(F)(F)F)N/N=C/c1ccccc1C(F)(F)F [NCL036] | >128 µg/mL |
| Cl.N=C(NN=Cc1cccc(C(F)(F)F)c1)NN=Cc1cccc(C(F)(F)F)c1 [NCL037] | >128 µg/mL |
| Cl.N=C(N)N/N=C/c1ccccc1C(F)(F)F [NCL042] | >128 µg/mL |
| Cc1ccccc1/C=N/NC(=N)N.Cl [NCL045] | >128 µg/mL |
| Cc1cccc(/C=N/NC(=N)N)c1.Cl [NCL046] | >128 µg/mL |
| NC(=O)N/N=C/c1ccccc1Cl [NCL047] | >128 µg/mL |
| CC(=NNC(=N)NN=C(C)c1ccc(C(F)(F)F)cc1)c1ccc(C(F)(F)F)cc1.Cl [NCL061] | 8 µg/mL |

system: Pseudomonas aeruginosa; assay: as above; assay type: cell-based; settings: 24 hours; 1st and 2nd replicate rows

| Compound | MIC (μg/ml) at 24 hours, P. aeruginosa |
| --- | --- |
| Cl.N#Cc1ccc(/C=N/NC(=N)N)cc1 [NCL031] | >128 µg/mL |
| Cl.N#Cc1ccccc1/C=N/NC(=N)N [NCL032] | >128 µg/mL |
| Cl.N#Cc1cccc(/C=N/NC(=N)N)c1 [NCL033] | >128 µg/mL |
| COc1ccccc1/C=N/NC(=N)N.Cl [NCL034] | >128 µg/mL |
| Cl.N=C(N/N=C/c1ccccc1C(F)(F)F)N/N=C/c1ccccc1C(F)(F)F [NCL036] | >128 µg/mL |
| Cl.N=C(NN=Cc1cccc(C(F)(F)F)c1)NN=Cc1cccc(C(F)(F)F)c1 [NCL037] | >128 µg/mL |
| Cl.N=C(N)N/N=C/c1ccccc1C(F)(F)F [NCL042] | >128 µg/mL |
| Cc1ccccc1/C=N/NC(=N)N.Cl [NCL045] | >128 µg/mL |
| Cc1cccc(/C=N/NC(=N)N)c1.Cl [NCL046] | >128 µg/mL |
| NC(=O)N/N=C/c1ccccc1Cl [NCL047] | >128 µg/mL |
| CC(=NNC(=N)NN=C(C)c1ccc(C(F)(F)F)cc1)c1ccc(C(F)(F)F)cc1.Cl [NCL061] | >128 µg/mL |

system: Escherichia coli; assay: as above; assay type: cell-based; settings: 24 hours; 1st and 2nd replicate rows

| Compound | MIC (μg/ml) at 24 hours, E. coli |
| --- | --- |
| Cl.N#Cc1ccc(/C=N/NC(=N)N)cc1 [NCL031] | >128 µg/mL |
| Cl.N#Cc1ccccc1/C=N/NC(=N)N [NCL032] | >128 µg/mL |
| Cl.N#Cc1cccc(/C=N/NC(=N)N)c1 [NCL033] | >128 µg/mL |
| COc1ccccc1/C=N/NC(=N)N.Cl [NCL034] | >128 µg/mL |
| Cl.N=C(N/N=C/c1ccccc1C(F)(F)F)N/N=C/c1ccccc1C(F)(F)F [NCL036] | >128 µg/mL |
| Cl.N=C(NN=Cc1cccc(C(F)(F)F)c1)NN=Cc1cccc(C(F)(F)F)c1 [NCL037] | >128 µg/mL |
| Cl.N=C(N)N/N=C/c1ccccc1C(F)(F)F [NCL042] | >128 µg/mL |
| Cc1ccccc1/C=N/NC(=N)N.Cl [NCL045] | >128 µg/mL |
| Cc1cccc(/C=N/NC(=N)N)c1.Cl [NCL046] | >128 µg/mL |
| NC(=O)N/N=C/c1ccccc1Cl [NCL047] | >128 µg/mL |
| CC(=NNC(=N)NN=C(C)c1ccc(C(F)(F)F)cc1)c1ccc(C(F)(F)F)cc1.Cl [NCL061] | >128 µg/mL |

system: MRSA; assay: as above; assay type: cell-based, Staphylococcus aureus; settings: isolate MRSA 1; 24 hours; 1st and 2nd replicate rows
Description: as §1, §2

| Compound | MIC (μg/ml) at 24 hours, MRSA 1 |
| --- | --- |
| Cl.N#Cc1ccc(/C=N/NC(=N)N)cc1 [NCL031] | >128 µg/mL |
| Cl.N#Cc1ccccc1/C=N/NC(=N)N [NCL032] | >128 µg/mL |
| Cl.N#Cc1cccc(/C=N/NC(=N)N)c1 [NCL033] | >128 µg/mL |
| COc1ccccc1/C=N/NC(=N)N.Cl [NCL034] | >128 µg/mL |
| Cl.N=C(N/N=C/c1ccccc1C(F)(F)F)N/N=C/c1ccccc1C(F)(F)F [NCL036] | >128 µg/mL |
| Cl.N=C(NN=Cc1cccc(C(F)(F)F)c1)NN=Cc1cccc(C(F)(F)F)c1 [NCL037] | >128 µg/mL |
| Cl.N=C(N)N/N=C/c1ccccc1C(F)(F)F [NCL042] | >128 µg/mL |
| Cc1ccccc1/C=N/NC(=N)N.Cl [NCL045] | >128 µg/mL |
| Cc1cccc(/C=N/NC(=N)N)c1.Cl [NCL046] | >128 µg/mL |
| NC(=O)N/N=C/c1ccccc1Cl [NCL047] | >128 µg/mL |
| CC(=NNC(=N)NN=C(C)c1ccc(C(F)(F)F)cc1)c1ccc(C(F)(F)F)cc1.Cl [NCL061] | >128 µg/mL |

same assay, conditions: isolate MRSA 2; 24 hours; 1st and 2nd replicate rows

| Compound | MIC (μg/ml) at 24 hours, MRSA 2 |
| --- | --- |
| Cl.N#Cc1ccc(/C=N/NC(=N)N)cc1 [NCL031] | >128 µg/mL |
| Cl.N#Cc1ccccc1/C=N/NC(=N)N [NCL032] | >128 µg/mL |
| Cl.N#Cc1cccc(/C=N/NC(=N)N)c1 [NCL033] | >128 µg/mL |
| COc1ccccc1/C=N/NC(=N)N.Cl [NCL034] | >128 µg/mL |
| Cl.N=C(N/N=C/c1ccccc1C(F)(F)F)N/N=C/c1ccccc1C(F)(F)F [NCL036] | >128 µg/mL |
| Cl.N=C(NN=Cc1cccc(C(F)(F)F)c1)NN=Cc1cccc(C(F)(F)F)c1 [NCL037] | >128 µg/mL |
| Cl.N=C(N)N/N=C/c1ccccc1C(F)(F)F [NCL042] | >128 µg/mL |
| Cc1ccccc1/C=N/NC(=N)N.Cl [NCL045] | >128 µg/mL |
| Cc1cccc(/C=N/NC(=N)N)c1.Cl [NCL046] | >128 µg/mL |
| NC(=O)N/N=C/c1ccccc1Cl [NCL047] | >128 µg/mL |
| CC(=NNC(=N)NN=C(C)c1ccc(C(F)(F)F)cc1)c1ccc(C(F)(F)F)cc1.Cl [NCL061] | >128 µg/mL |
